According to PMC5727127, “H3K14ac is linked to methylation of H3K9 by the triple Tudor domain of SETDB1” (Nature Communications, 2017):

Tests used:
SETDB1 3TD, wildtype = biological target: T1, SETDB1 3TD, wildtype (Homo sapiens, UniProt Q15047); experiment: NMR chemical shift perturbation binding to 3TD; details: 15N HSQC, 25 °C, pH 7.0, 150 mM NaCl
T1 construct: cloned into the pET28a-MHL (residues 190–410), pGEX6P2, and pGEX-4T-1 (residues 197–403) vectors; 6×His; made in house; host or cells: E. coli BL21 derivative (SGC) with pRARE
Method: NMR experiments were collected on a Bruker Avance 500-MHz spectrometer equipped with a cryogenic probe. Chemical shift perturbation experiments were carried out using uniformly ^15N-labeled wildtype 3TD protein in 20 mM Tris/HCl pH 7.0 and 150 mM NaCl. ^1H, ^15N HSQC spectra were recorded at 25 °C in the presence of increasing concentrations of histone tail peptides. K d values were calculated by a nonlinear least-squares analysis in Kaleidagraph using the equation Δδ=ΔδmaxcL+cP+Kd-cL+cP+Kd^2-4cLcP∕2cP, where c L is the concentration of the peptide, c P is the concentration of the protein, Δδ is the observed normalized chemical shift change, and Δδ max is the normalized chemical shift change at saturation, calculated as Δδ=ΔδH^2+ΔδN∕5^2, where δ is the chemical shift in p.p.m.
Supplementary Figure 1: Peptide binding of 3TD. (a) Titration of 3TD binding to peptide arrays. Note the specific binding to H3K9me1/2/3-K14ac double modified […]
concentration (100 nM). (b) ITC analysis of 3TD binding to single modified H3 tail […]
peptides. (c) NMR chemical shift perturbation experiments carried out to detect potentially weak binding of 3TD to H3K14ac, H3K9me3 and unmodified H3. Weak binding of H3K14ac could be detected and the […]
H3 was observed. Panel a relates to Fig. 1, panels b and c to Fig. 2.
(1 picture or pasted object on this page, not shown here)

[1] = tested on: SETDB1 3TD, GST-tagged, wildtype; experiment: Modified histone peptide array binding of 3TD wildtype; details: GST-tagged 3TD, modified histone peptide arrays
Method: (§1) Experiments to determine the binding specificity of 3TD wildtype and mutants were performed using CelluSpots peptide arrays (MODified Histone Peptide Array, Active Motif), as described previously, in 20 mM HEPES pH 7.5, 100 mM KCl, 1 mM EDTA, 0.2 mM DTT, and 10% glycerol. All peptide array binding studies were conducted at least in two technical repeats. Annotations of all spots are given in Supplementary Table 2. The amounts of GST-fused Tudor proteins used in peptide array binding and western blot analyses ranged from 0.5 to 100 nM. For methylation analysis, MODified Histone Peptide arrays (Active Motif) were incubated with 20 nM SETDB1 in buffer (50 mM Tris/HCl pH 9.0, 4 mM DTT, 5 mM MgCl2) supplemented with 0.38 µM radioactively labeled [methyl-3H]-AdoMet (Perkin Elmer) for 2 h at room temperature. The arrays were then washed 5 times with wash buffer (100 mM NH4HCO3 and 1% SDS), incubated in Amplify NAMP100 (GE Healthcare) for 5 min, and then exposed to Hyperfilm TM ECL high-performance chemiluminescence film (GE Healthcare) in the dark at −80 °C for 1–7 days.

SETDB1 3TD Y268A (TD2) = biological target: T2, SETDB1 3TD Y268A (TD2) (Homo sapiens, UniProt Q15047, Y268A); experiment: ITC binding of 3TD Y268A to H3 peptides; details: Fig. 2c, Y268A relative to wildtype
T2 construct: cloned into the pET28a-MHL (residues 190–410), pGEX6P2, and pGEX-4T-1 (residues 197–403) vectors; 6×His; made in house; host or cells: E. coli BL21 derivative (SGC) with pRARE
Method: (§2) ITC experiments were carried out at 25 °C on a VP-ITC calorimeter (MicroCal). Protein and peptide were kept in an identical buffer of 20 mM Tris/HCl pH 7.0 and 150 mM NaCl. ITC measurements were carried out with protein and ligand concentrations ranging from 50 to 100 μM and 1–2 mM, respectively. Binding isotherms were analyzed by nonlinear least-squares fitting of the data using Microcal ORIGIN software (Microcal) using a one-site binding model.

SETDB1 3TD Y268A = experiment: Modified histone peptide array binding of 3TD Y268A; details: Y268A vs wildtype; peptide array and ITC assays
Method: as §1

SETDB1 3TD W358A = experiment: Modified histone peptide array binding of 3TD W358A; details: W358A vs wildtype
Method: as §1

SETDB1 3TD W358A (TD3) = biological target: T3, SETDB1 3TD W358A (TD3) (Homo sapiens, UniProt Q15047, W358A); experiment: ITC binding of 3TD W358A to H3 peptides; details: W358A vs wildtype
T3 construct: cloned into the pET28a-MHL (residues 190–410), pGEX6P2, and pGEX-4T-1 (residues 197–403) vectors; 6×His; made in house; host or cells: E. coli BL21 derivative (SGC) with pRARE
Method: as §2

HEK293 cells [2] = experiment: Far-western blot of 3TD binding to histones from HDAC inhibitor treated cells; format: cell-based, human; details: HEK293, 48 h, 0.4 mM TSA or 5 mM sodium butyrate, 100 nM GST-3TD
Method: Native histones were isolated by acid extraction[55] from HEK293 cells, and recombinant histone H3 was purchased from New England Biolabs. For the experiment with HDAC inhibitors, cells were treated for 48 h with 0.4 mM TSA or 5 mM sodium butyrate. Five micrograms of native histones and matching amount of recombinant H3 were electrophoresed on 18% SDS-PAGE and transferred onto nitrocellulose membranes. The membrane was then blocked in 5% milk in TBST and incubated with purified GST-tagged 3TD, followed by the anti-GST (GE Healtcare 27457701A, dilution 1:5000) and anti-goat antibody (Sigma A4174, dilution 1:10000). The amount of GST-fused Tudor protein used in western blot analyses was 100 nM. All experiments were performed in duplicates or triplicates. In the western blots, following antibodies were used: anti-K14ac (Millipore MABE351, dilution for checking specificity: 1:2000 or 1:1000; for western blot: 1:500), anti-H3K9me3 (Abcam ab8898, dilution 1:2000), anti-H3K9me2 (Abcam ab1220, dilution 1:1000), and anti-H3K4me3 (Abcam ab8580, dilution 1:2000). For specificity analysis of antibodies, see Supplementary Fig. 13. Secondary antibodies were anti-rabbit IgG HRP (GE Healtcare NA934, dilution 1:5000) and anti-mouse IgG HRP (GE Healtcare NXA931, dilution 1:5000). Native histone and nucleosome pull-down experiments were done at least in two biological repeats. […]

HEK293 cells [3] = experiment: Western blot of histone modifications after HDAC inhibitor treatment; format: cell-based, human; details: HEK293, 48 h, 0.4 mM TSA or 5 mM sodium butyrate; for K9 methylation content of H3 from treated cells: western blot anti-K9me; for H3K14ac signal of H3 from treated cells: western blot anti-K14ac
Method: Native histones were isolated by acid extraction[55] from HEK293 cells, and recombinant histone H3 was purchased from New England Biolabs. For the experiment with HDAC inhibitors, cells were treated for 48 h with 0.4 mM TSA or 5 mM sodium butyrate. Five micrograms of native histones and matching amount of recombinant H3 were electrophoresed on 18% SDS-PAGE and transferred onto nitrocellulose membranes. The membrane was then blocked in 5% milk in TBST and incubated with purified GST-tagged 3TD, followed by the anti-GST (GE Healtcare 27457701A, dilution 1:5000) and anti-goat antibody (Sigma A4174, dilution 1:10000). The amount of GST-fused Tudor protein used in western blot analyses was 100 nM. All experiments were performed in duplicates or triplicates. In the western blots, following antibodies were used: anti-K14ac (Millipore MABE351, dilution for checking specificity: 1:2000 or 1:1000; for western blot: 1:500), anti-H3K9me3 (Abcam ab8898, dilution 1:2000), anti-H3K9me2 (Abcam ab1220, dilution 1:1000), and anti-H3K4me3 (Abcam ab8580, dilution 1:2000). For specificity analysis of antibodies, see Supplementary Fig. 13. Secondary antibodies were anti-rabbit IgG HRP (GE Healtcare NA934, dilution 1:5000) and anti-mouse IgG HRP (GE Healtcare NXA931, dilution 1:5000). Native histone and nucleosome pull-down experiments were done at least in two biological repeats. All antibodies were used following the manufacturer’s recommendations. Uncropped gel images are shown in Supplementary Fig. 14.

SETDB1 3TD F332A = experiment: Modified histone peptide array binding of 3TD F332A; details: replacement of F332 by alanine; peptide array and ITC
Method: as §1

Row | Structure (SMILES) | peptide array binding, 3TD [1] | change of binding, Y268A (SETDB1 3TD Y268A) | change of peptide array binding, W358A (SETDB1 3TD W358A) | fold reduction of affinity, W358A (SETDB1 3TD W358A (TD3)) [fold] | 3TD binding to histones from treated cells (HEK293 cells [2]) | K9 methylation content of H3 from treated cells (HEK293 cells [3]) | H3K14ac signal of H3 from treated cells (HEK293 cells [3]) | other results
1 | C[C@H](NC(=O)[C@@H](NC(=O)[C@H](CCC(N)=O)NC(=O)[C@@H](N)CCCCN)[C@@H](C)O)C(=O)N[C@@H](CCCNC(=N)N)C(=O)N[C@@H](CCCC[N+](C)(C)C)C(=O)N[C@@H](CO)C(=O)N[C@H](C(=O)NCC(=O)NCC(=O)N[C@@H](CCCCN)C(=O)N[C@@H](C)C(=O)N1CCC[C@H]1C(=O)N[C@@H](CCCNC(=N)N)C(=O)N[C@@H](CCCCN)C(=O)N[C@@H](CCC(N)=O)C(=O)O)[C@@H](C)O [H3K9me3] | – | – | – | – | – | – | – | binding detected by NMR (SETDB1 3TD, wildtype): no detectable binding
2 | CCCC(=O)[O-].[Na+] [sodium butyrate] | – | – | – | – | increased 3TD binding | did not change | increased H3K14ac signal | –
3 | CC(/C=C/C(=O)NO)=C\[C@@H](C)C(=O)c1ccc(N(C)C)cc1 [trichostatin A] | – | – | – | – | increased 3TD binding | did not change | increased H3K14ac signal | –

The next lines start with results.

Row | peptide array binding, 3TD [1] | change of binding, Y268A (SETDB1 3TD Y268A) | change of peptide array binding, W358A (SETDB1 3TD W358A) | Structure (SMILES) | fold reduction of affinity, W358A (SETDB1 3TD W358A (TD3)) [fold] | 3TD binding to histones from treated cells (HEK293 cells [2]) | K9 methylation content of H3 from treated cells (HEK293 cells [3]) | H3K14ac signal of H3 from treated cells (HEK293 cells [3]) | other results
4 | strong and selective binding | clear reduction in affinity | only moderately reduced | CC(=O)NCCCC[C@H](NC(=O)CNC(=O)CNC(=O)[C@@H](NC(=O)[C@H](CO)NC(=O)[C@H](CCCC[N+](C)(C)C)NC(=O)[C@H](CCCNC(=N)N)NC(=O)[C@H](C)NC(=O)[C@@H](NC(=O)[C@H](CCC(N)=O)NC(=O)[C@@H](N)CCCCN)[C@@H](C)O)[C@@H](C)O)C(=O)N[C@@H](C)C(=O)N1CCC[C@H]1C(=O)N[C@@H](CCCNC(=N)N)C(=O)N[C@@H](CCCCN)C(=O)N[C@@H](CCC(N)=O)C(=O)O [H3K9me3/K14ac] | 2 | – | – | – | relative binding affinity, Y268A (SETDB1 3TD Y268A (TD2)): specific loss in binding
5 | strong and selective binding | not affected | strong reduction in binding | CC(=O)NCCCC[C@H](NC(=O)CNC(=O)CNC(=O)[C@@H](NC(=O)[C@H](CO)NC(=O)[C@H](CCCCN(C)C)NC(=O)[C@H](CCCNC(=N)N)NC(=O)[C@H](C)NC(=O)[C@@H](NC(=O)[C@H](CCC(N)=O)NC(=O)[C@@H](N)CCCCN)[C@@H](C)O)[C@@H](C)O)C(=O)N[C@@H](C)C(=O)N1CCC[C@H]1C(=O)N[C@@H](CCCNC(=N)N)C(=O)N[C@@H](CCCCN)C(=O)N[C@@H](CCC(N)=O)C(=O)O [H3K9me2/K14ac] | 18 | – | – | – | change of binding, F332A (SETDB1 3TD F332A): strong reduction in affinity
6 | strong and selective binding | not affected | loss | CNCCCC[C@H](NC(=O)[C@H](CCCNC(=N)N)NC(=O)[C@H](C)NC(=O)[C@@H](NC(=O)[C@H](CCC(N)=O)NC(=O)[C@@H](N)CCCCN)[C@@H](C)O)C(=O)N[C@@H](CO)C(=O)N[C@H](C(=O)NCC(=O)NCC(=O)N[C@@H](CCCCNC(C)=O)C(=O)N[C@@H](C)C(=O)N1CCC[C@H]1C(=O)N[C@@H](CCCNC(=N)N)C(=O)N[C@@H](CCCCN)C(=O)N[C@@H](CCC(N)=O)C(=O)O)[C@@H](C)O [H3K9me1/K14ac] | – | – | – | – | loss of binding in ITC, W358A (SETDB1 3TD W358A (TD3)): completely lost
